From the SangsterLogP compilation come the findings set out here.

What is called logD is lipophilicity at a set pH, counting ionised and neutral species. A low value points to a more hydrophilic compound.

SMILES strings stand for the structures.

One series in a line: method code SF, from DOI: 10.1016/j.ejps.2012.10.019, PMID: 23131797. The settings on record: pH 2.0.
For the compound `Cc1cccc(C)c1NC(=O)Cn1cc(C(=O)C2CC2)c2ccccc21`, the logD is 3.47.
On the same count and under the same terms, the value for `O=C(OCc1c(F)cccc1Cl)c1cccc(S(=O)(=O)N2CCCC2)c1` was 4.22; that for `Cc1ccc(C(=O)NCCc2ccc3c(c2)OCCO3)cc1[N+](=O)[O-]` was 3.28.

The series is the same for the next values; noted with them: pH 5.0.
In the case of `Nn1c(SCC(=O)Nc2ccccc2-c2ccccc2)nnc1-c1ccc(OC(F)F)cc1`, the logD is 4.85.
Take `NC(=O)c1cc(NC(=O)c2cc(C(F)(F)F)cc(C(F)(F)F)c2)cc(C(N)=O)c1`: the logD was 3.87.
The compound `O=C1c2ccc(-c3ccc4c(c3)C(=O)N(CCO)C4=O)cc2C(=O)N1CCO` came in with a logD of 3.19.
The compound `O=C(COC(=O)c1ccccc1F)Nc1ccccc1` had a pH-dependent lipophilicity (logD) of 3.18.
The compound `Cn1c2ccccc2n2c3nc(C#N)c(C#N)nc3c(C#N)c12` returned a logD of 3.61.
The compound `COC(=O)C1=C(C)NC(C)=C(C(=O)OC)C1c1cn(-c2ccccc2)nc1-c1cccc([N+](=O)[O-])c1` showed a logD of 5.04.
Compound `CCOC(=O)C(C)(C)N(CCC(C)C)S(=O)(=O)c1ccc([N+](=O)[O-])cc1` came in with a logD of 4.75.
On the same count and under the same terms, under `CCOC(=O)c1c(C)[nH]c(C)c1C(=O)COC(=O)c1ccc(F)c(S(=O)(=O)N2CCOCC2)c1` stands 3.63.
For `CCOc1ccc(-n2c(SCC(=O)NC3CC3)nc3sc4c(c3c2=O)CCC4)cc1`, the logD worked out at 4.64.
Compound `O=C(OCC(=O)N1CCCC1)c1c2ccccc2cc2ccccc12` yielded a logD of 4.09.
The compound `COC(=O)c1ccc(OC(=O)c2cc(OC)cc(OC)c2)cc1` gave a logD of 4.64.
Turning to `COc1cccc(OCCn2c(=O)c3cc4c(=O)n(CCOc5cccc(OC)c5)c(=O)c4cc3c2=O)c1`, the logD was 5.43.
For the compound `O=C(c1c(F)cccc1F)N1CCCC1`, the logD was determined as 1.88.
For `O=[N+]([O-])c1cccc(-c2noc(CC3CCCCC3)n2)c1`, the logD stood at 5.17.
Regarding `CC1=CC(C(F)(F)F)(C(F)(F)F)C(C#N)=C(N)N1c1ccc(C(N)=O)cc1`, the logD came to 4.41.
The compound `FC(F)(F)c1ccc(-n2cc3ccccc3n2)cc1` registered a logD of 4.42.
Still for that read-out and setting: the value for `Cc1ccc(N(CCOC(=O)c2ccc(S(=O)(=O)N3CCCCC3)cc2)C2=NS(=O)(=O)c3ccccc32)cc1` was 5.58; that for `Cc1sc2nc(SCC(=O)N3CCCC3)n(C3CCCCC3)c(=O)c2c1C` was 5.16; that for `N#CCSc1nc2ccccc2c(=O)n1-c1ccc(OC(F)F)cc1` was 4.17.
Consider `O=C(COc1ccc(C(F)(F)F)cc1[N+](=O)[O-])Nc1ccccc1Br`, for which the logD stood at 5.16.
On to `CCOC(=O)CSc1nnnn1-c1cccc2ccccc12`, for which the logD stood at 3.8.
The compound `CCOc1nc(C#N)nc(N2CCOCC2)n1` showed a logD of 2.46.
Still for that read-out and setting: under `COc1ccc(NC(=O)c2cc(NC(=O)c3ccccc3)cc(C(=O)Nc3ccc(OC)cc3)c2)cc1` stands 5.59; under `C=CCn1c(C)c(C=C2C(=O)OC3(CCCCC3)OC2=O)c2ccccc21`, 4.62.
On the same count and under the same terms, the value for `O=C(Nc1ccc(OC(F)F)cc1)c1ccc(COc2ccc(I)cc2)o1` was 5.99; that for `O=C(OCC(=O)N1CCC(Cc2ccccc2)CC1)C1CCCCC1` was 4.98.
Regarding `CC(C)NC(=O)COC(=O)c1ccc(S(=O)(=O)N2CCCCCC2)cc1`, the logD came to 3.78.
Regarding `CC12CCCC(C(N)=O)(CCC1)C2`, the logD is 2.73.
On the same count and under the same terms, the value for `O=C1CCCC2=C1C(c1ccc(OCc3ccccc3F)cc1)C1=C(CCCC1=O)O2` was 4.92; that for `O=C(CSc1nc2ccccc2s1)c1cccs1` was 4.04.
Compound `CCCc1ccc(OCc2ccc(C(=O)Nc3ccccc3C(=O)OC)o2)c(OC)c1` returned a logD of 5.89.
As for `CCOc1ccccc1OCC(=O)Nc1ccc2ccccc2c1`, the logD came to 4.73.
Turning to `COc1ccc(-c2nnc(SCc3cc(=O)oc4ccc5ccccc5c34)n2N)cc1`, the logD is 4.24.
`CC(=O)Oc1cccc(N2C(=O)c3ccc(C(=O)c4ccc5c(c4)C(=O)N(c4cccc(OC(C)=O)c4)C5=O)cc3C2=O)c1` showed a logD of 5.13.
The same measure, in the same setting: under `COc1ccc(C(C)=O)cc1COC(=O)c1cc(Cl)ccc1Cl` stands 4.45.
In turn, `COC(=O)c1cccc(NC(=O)CCN2C(=O)c3ccccc3C2=O)c1` displayed a logD of 3.39.
In the case of `Cc1cc(=O)oc2cc(OC(C)C)ccc12`, the logD amounted to 3.33. The logD values of the last two compounds are within 0.2 log units of each other.
`CCOc1ccc(NC(=O)CSc2nc3ccsc3c(=O)n2-c2ccccc2)cc1` displayed a logD of 4.33.
`CCCCOc1ccc(C(=O)N(CCN2C(=O)c3ccccc3C2=O)c2cccc(OC)c2)cc1` returned a logD of 5.35.
Turning to `CC(Sc1nc2ccccc2c(=O)n1-c1ccc(F)cc1)C(=O)NCc1ccc2c(c1)OCO2` (stereo not given), the logD was 4.63.
Same read-out and setting: the value for `CC(C)(C)NC(=S)Nc1ccc(F)cc1` was 2.71.
Turning to `CCOC(=O)c1cnn(C(=O)c2cnn(-c3ccc([N+](=O)[O-])cc3)c2C(F)(F)F)c1N`, the pH-dependent lipophilicity (logD) was 3.53.
Take `COc1ccc(S(=O)(=O)N(CC(=O)Nc2cccc([N+](=O)[O-])c2)C2CCCCC2)cc1Cl`: the logD amounted to 5.48.
Same read-out and setting: the value for `Cc1ccc(SCC(=O)NCc2cccc(CNC(=O)CSc3ccc(C)cc3)c2)cc1` was 5.08.
The compound `O=C(NC1CC1)c1ccc(COc2c(F)c(F)cc(F)c2F)o1` displayed a logD of 3.54.
As for `FC(F)(F)c1nc(-c2ccc(-c3noc(C(F)(F)F)n3)cc2)no1`, the logD was determined as 6.06.
With `CC(=O)c1cc2ccccc2o1`, the logD was 2.15.
Same read-out and setting: the value for `CCOc1ccc(NC=C(S(=O)(=O)c2ccc(C)cc2)S(=O)(=O)c2ccc(C)cc2)cc1` was 5.64; that for `COc1cc2c(cc1NC(=O)COC(=O)c1cc(OC)c(OC)cc1[N+](=O)[O-])oc1ccccc12` was 5.04.
`O=C(CS(=O)(=O)Cc1ccccc1)Nc1ccc2c(c1)OCCO2`: the logD came out at 3.19.
`Cc1ccc(NC(=O)c2ccc(S(=O)(=O)N3CCOCC3)cc2)c(C(=O)c2ccccc2)c1` came in with a logD of 4.54.
Regarding `Cc1ccc(NC(=O)CSc2nnc(Cc3ccccc3)o2)cc1Cl`, the logD was 4.85.
With `COC(=O)CN(c1ccccc1)S(=O)(=O)c1ccc(OC)cc1`, the logD turned out to be 3.43.

The series is the same for the next values; noted with them: pH 6.5.
`COc1ccc(-c2nnc(N)s2)cc1OC` had a logD of 2.34.
In turn, `O=C(c1cccc([N+](=O)[O-])c1)N(Cc1ccccc1F)N1C(=O)c2ccccc2C1=O` displayed a logD of 4.47.
The same measure, in the same setting: under `COC(=O)c1c(NC(NC(=O)c2cccnc2)(C(F)(F)F)C(F)(F)F)sc2c1CCCCC2` stands 5.75.
In turn, `COCCn1c(C)cc(C(=O)CSc2ncnc3sc(C)c(C)c23)c1C` showed a logD of 4.59.
The compound `O=C(CC1Nc2ccccc2NC1=O)Nc1ccccc1NC(=O)CC1Nc2ccccc2NC1=O` (stereo not given) had a logD of 3.42.
In turn, `COc1cc(C(=O)COC(=O)CCCOc2ccc(Cl)cc2Cl)cc(OC)c1OC` came in with a logD of 5.59.
Regarding `N#Cc1nc(N2CCCC2)nc(N(c2ccccc2)c2ccccc2)n1`, the logD is 5.38.
On to `CC(=O)N1CC(=O)N(CC(=O)N(Cc2ccccc2)c2nc(-c3ccccc3)cs2)C1=S`, for which the logD was determined as 4.43.

The same series, now with this note: pH 7.0.
`Cc1ccc(C(=O)N2C(=O)c3cccc(N)c3C2=O)cc1NC(=O)c1ccco1` returned a logD of 3.55.

The series is the same for the next values; noted with them: pH 7.3.
Compound `Nn1c(COc2ccccc2)nnc1SC(F)F` registered a logD of 1.85.
In turn, `COc1cc(OC)c(C2C3=C(CCCC3=O)Nc3ncnn32)cc1OC` (stereo not given) registered a logD of 2.19.
Compound `COc1cccc(Cn2cc(N)cn2)c1` gave a logD of 1.55.
`COc1cccc(NC(=O)CSc2nnc3ccccn23)c1` had a logD of 2.45.
Consider `C=CCn1c(SCc2ccccc2)nc2ccccc2c1=O`, for which the logD turned out to be 5.11.
In turn, `CC(Sc1nnc(-c2ccc(F)cc2)n1-c1ccccc1)C(N)=O` (stereo not given) came in with a logD of 3.38.
The same measure, in the same setting: under `Cn1c(SCC(=O)NC2CCCCCC2)nnc1-c1ccc(Cl)cc1` stands 4.21; under `COc1ccccc1NC(=O)C1=C(C)Nc2nc(SCc3ccccc3F)nn2C1c1ccncc1` (stereo not given), 4.66; under `Cc1ccnc(N(C(=O)c2cc3c(s2)CCCC3)C(=O)c2cc3c(s2)CCCC3)c1`, 5.76.
`Cc1cc(Br)ccc1NC(=O)CSc1nnc(N)s1` showed a logD of 2.69.
Turning to `C=CCn1c(SCC(=O)Nc2ccc(C)c(F)c2)nnc1-c1cccs1`, the logD is 4.48.
As for `NC(=O)CSc1nc2c(c(=O)n1Cc1ccco1)C1(CCCCC1)Cc1ccccc1-2`, the logD came out at 5.45.
Same read-out and setting: the value for `COc1ccc(C2CC(=O)C3=C(C2)Nc2ccccc2N(C(=O)C(F)(F)F)C3c2cc(OC)c(OC)c(OC)c2)cc1` (stereo not given) was 4.87; that for `Cn1c(C(=O)N2CCC3(CC2)OCCO3)cc2c(=O)n3ccccc3nc21` was 2.87.
`n1onc2c1NC1Nc3nonc3NC1N2` (stereo not given) displayed a logD of 0.3.

The series is the same for the next values; noted with them: pH 8.0.
In the case of `CCOC(=O)c1nc(N)sc1C`, the logD is 1.74.
On the same count and under the same terms, under `Cc1cc(SCC(=O)NCc2ccc3c(c2)OCO3)nc2ccccc12` stands 4.15.

The same series, now with this note: pH 10.0.
Compound `COc1ccc(NC(=O)c2sc3sc(C(=O)Nc4ccc(OC)c(OC)c4)c(N)c3c2N)cc1OC` registered a logD of 4.88.
As for `c1nc(NC2CCCC2)c2c3c(sc2n1)CCCC3`, the logD was found to be 4.17.
As for `Nc1nc2nc3nc(N)sc3cc2s1`, the logD came out at 1.56.
Take `COc1ccc(C(=O)Cn2c(N3CCCCCC3)nc3c2c(=O)n(C)c(=O)n3C)cc1`: the logD is 4.42.
`CCCSc1nc2c(c(=O)n1-c1ccc(Br)cc1)SCC2`: the logD is 4.61.
On the same count and under the same terms, under `CCc1noc(-c2[nH]c3ccccc3c2C(=O)C(=O)N(C)C)c1C` stands 2.68.

The series is the same for the next values; noted with them: pH 10.5.
`Cc1nn(C)cc1-c1cc(C(F)(F)F)n2ncc(C(=O)N(C3CCCCC3)C3CCCCC3)c2n1`: the logD stood at 5.81.
Consider `Cn1c(N)c(C(=O)CSc2nc3ccccc3nc2SCC(=O)c2c(N)n(C)c(=O)n(C)c2=O)c(=O)n(C)c1=O`, for which the logD was determined as 2.59.
The same measure, in the same setting: under `COCCCNC(=O)c1cc(Br)c(C)c(C)c1C` stands 2.93.
On the same count and under the same terms, under `CCn1c(SCc2ccccc2F)nc2sc(C)c(C)c2c1=O` stands 5.86.
As to `Nc1nc(SCC(=O)N(CCO)CCO)nc2sc3c(c12)CCCC3`, the logD came out at 3.2.
Compound `Cn1c(=O)c(C(=O)CN2CCSc3ccccc32)c(N)n(Cc2ccccc2)c1=O` gave a logD of 4.71.
As for `CC(=O)Oc1cc(C(=O)Nc2ccc(Oc3ccccc3)cc2)cc(OC(C)=O)c1OC(C)=O`, the logD stood at 2.89.
